Experiments:
Fusarium graminearum [1] = assay: whole plant or invertebrate; assay type: in vivo; conditions: in Triticum aestivum, 168 h, read-out: Protective value
Fusarium graminearum [2] = assay: microbe, parasite or virus in culture; assay type: cell-based; conditions: Fusarium graminearum, read-out: Growth inhibition grade, F.g
Ustilago nuda = assay: Plate medium fungicidal assay, barley loose smut U.n (Experimental Example 5); assay type: cell-based; conditions: Ustilago nuda, read-out: Growth inhibition grade, U.n
Procedure, shortened: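 Compounds in DMSO were mixed into molten PDA to give plates at 50 mg/L and 5 mg/L, then inoculated with a 4 mm mycelial plug. Colony diameter was compared with untreated plates as % inhibition = 100(dc−dt)/dc, scored on a 5-grade scale.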

Alternaria alternata = assay: Plate medium fungicidal assay, Alternaria blotch A.m (Experimental Example 5); assay type: cell-based; conditions: Alternaria alternata, read-out: Growth inhibition grade, A.m
Procedure, shortened: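 Compound dissolved in DMSO and mixed into PDA plates at 50 mg/L and 5 mg/L; 4 mm mycelial plug inoculated. Colony diameter compared with untreated plates, % mycelial growth inhibition = 100(dc−dt)/dc, converted to one of 5 grades.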

Botritis cinerea = assay: Plate medium fungicidal assay, gray mold B.c (Experimental Example 5); assay type: cell-based; conditions: read-out: Growth inhibition grade, B.c
Procedure, shortened: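 Compounds in DMSO were incorporated into PDA plate medium at 50 mg/L and 5 mg/L, then inoculated with 4 mm mycelial plugs of Botrytis cinerea. Colony diameter versus untreated plates gave % mycelial growth inhibition, R=100(dc−dt)/dc, scored on a 5-grade scale.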

Fusarium oxysporum = assay: Plate medium fungicidal assay, cucumber fusarium wilt F.c (Experimental Example 5); assay type: cell-based; conditions: Fusarium oxysporum, read-out: Growth inhibition grade, F.c
Procedure, shortened: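 Compound in DMSO mixed into PDA agar to give plates at 50 mg/L and 5 mg/L, then inoculated with 4 mm mycelial plug. Colony diameter compared with untreated plate as % mycelial growth inhibition, R=100(dc−dt)/dc, then scored on a 5-grade scale.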

Curvularia sp. = assay: Plate medium assay, industrial material deteriorating microorganism, Curvularia (Experimental Example 5); assay type: cell-based; conditions: treatment at 50 mg/l, PDA plate medium, read-out: growth inhibition grade
Procedure, shortened: (§1)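 PDA plates, compound 50 or 5 mg/L (from DMSO solution); inoculum = 4 mm plug of precultured mycelium. Readout: colony diameter vs untreated, R=100(dc-dt)/dc; 5-grade score.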

Tyromyces palustris = assay: Plate medium assay, wood denaturing microorganism Oouzuratake (Experimental Example 5); assay type: cell-based; conditions: treatment at 50 mg/l, PDA plate medium; read-out: growth inhibition grade
Procedure, shortened: as §1

[3] = plate medium containing compound at 5 mg/L
[4] = plate medium containing compound at 50 mg/L

O[C@]1(Cn2cncn2)[C@H](Cc2ccc(Cl)cc2)CC[C@@H]1C(F)(F)F (racemic) [Compound I-65, (1RS,2SR,5SR)-5-(4-chlorobenzyl)-2-trifluoromethyl-1-(1H-1,2,4-triazol-1-ylmethyl)cyclopentanol]
pest or weed control at 500 µg/mL (Fusarium graminearum [1]): ≥ 90%
inhibition at 5 µg/mL (Fusarium graminearum [2]): 60 to 80%
inhibition at 50 µg/mL (Fusarium graminearum [2]): > 80%
inhibition at 5 µg/mL (Ustilago nuda; [3]): 40 to 60%
inhibition at 50 µg/mL (Ustilago nuda; [4]): > 80%
inhibition at 5 µg/mL (Alternaria alternata; [3]): 40 to 60%
inhibition at 50 µg/mL (Alternaria alternata; [4]): > 80%
inhibition at 5 µg/mL (Botritis cinerea; [3]): 60 to 80%
inhibition at 50 µg/mL (Botritis cinerea; [4]): > 80%
inhibition at 5 µg/mL (Fusarium oxysporum; [3]): 40 to 60%
inhibition at 50 µg/mL (Fusarium oxysporum; [4]): > 80%
inhibition at 50 µg/mL (Curvularia sp.): 60 to 80%
inhibition at 50 µg/mL (Tyromyces palustris): 60 to 80%

Reference: patent publication US9145351B2, “Azole derivatives, methods for producing the same, intermediate thereof, agro-horticultural agents” (KUREHA CORPORATION, priority 2009, dated 2015)
